Measurements reported in PMC4530782 (Bioorganic & medicinal chemistry letters, 2011).

How the values were obtained:
Water solubility = assay type: physicochemical; conditions: compared with 7 and 17e
[1] = tested on: Stat3 phosphorylation in MDA-468 cells; assay type: cell-based, human; conditions: 24 hrs
[2] = tested on: Stat3 phosphorylation in JJN3 cells; assay type: cell-based, human; conditions: 24 hrs
[3] = tested on: MDA-468 (breast) cancer cells; assay: Whole cell MTS cytotoxicity assay, MDA-468; assay type: cell-based; conditions: Homo sapiens, 72 h, read-out: EC50 MDA-468
[4] = tested on: DU145 (prostate) cancer cells; assay: Whole cell MTS cytotoxicity assay, DU145; assay type: cell-based; conditions: Homo sapiens, DU-145, 72 h, read-out: EC50 DU145
[5] = tested on: JJN3 (multiple myeloma) cancer cells; assay: Whole cell MTS cytotoxicity assay, JJN3; assay type: cell-based; conditions: Homo sapiens, JJN-3, 72 h, read-out: EC50 JJN3
Stat5 = conditions: read-out: Stat5 Ki, fluorescence polarization; earlier work on 7; cited from earlier work
Stat1 = conditions: read-out: Stat1 Ki, fluorescence polarization; earlier work on 7; cited from earlier work
[6] = tested on: NIH3T3, TE-71 and HPDEC cells; conditions: cited from earlier work
breast tumor xenografts = conditions: cited from earlier work

CN(CC(=O)N(Cc1ccc(C2CCCCC2)cc1)c1ccc(C(=O)O)c(O)c1)S(=O)(=O)c1c(F)c(F)c(F)c(F)c1F [17o]
water solubility (in words) (Water solubility): much improved water solubility over both 7 and 17e
levels of Stat3 downstream targets (cMYC, Bcl-xL, Survivin) ([1]; immunoblotting): effectively reduced levels of Stat3 downstream targets
levels of Stat3 downstream targets (cMYC, Bcl-xL, Survivin) ([2]; immunoblotting): effectively reduced levels of Stat3 downstream targets

Cc1ccc(S(=O)(=O)N(C)CC(=O)N(Cc2ccc(C3CCCCC3)cc2)c2ccc(C(=O)O)c(O)c2)cc1 [compound 7]
EC50 [3]: 17 ± 4.4 µM
EC50 [4]: 37.2 ± 12.4 µM
EC50 [5]: 93.3 ± 15.8 µM
concentration at which Stat3 phosphorylation is inhibited ([1]; Western blot): approximately 100 μM
concentration at which Stat3 phosphorylation is inhibited ([2]; Western blot): approximately 100 μM
Ki (Stat5): > 25 µM
Ki (Stat1): > 25 µM
effects against 'healthy' cells lacking activated Stat3 [6]: negligible effects
in vivo effect on breast tumor xenografts (breast tumor xenografts): suppression of breast tumor xenografts
